Earlier results, collected in patent EP4692316A1, “MICROCARRIER FOR CELL CULTURE, METHOD FOR PREPARING MICROCARRIER FOR CELL CULTURE, AND CELL CULTURE COMPOSITION USING SAME” (LG Chem, Ltd., priority 2024, dated 2025).

settings: monomer or oil as supplied

SMILES	density [g/mL]
C=Cc1ccc(C)cc1C [2,4-Dimethylstyrene]	0.906
C=Cc1ccc(C(C)(C)C)cc1 [4-tert-butyl styrene]	0.875
C=Cc1ccc(C)cc1 [methylstyrene]	0.89 to 0.92
C=Cc1c(C)cc(C)cc1C [trimethylstyrene]	0.906
